Measured values taken from ChEMBL document CHEMBL5120845, “Design and synthesis of novel macrolones bridged with linkers from 11,12-positions of macrolides” (Bioorg Med Chem Lett, 2022).
≈ marks a conversion by molar mass, not a printed value.

Legend:
Assay type in all cases: functional
Streptococcus pneumoniae [1] = assay: Antibacterial activity against Streptococcus pneumoniae ATCC 49619 by microbroth dilution method
Streptococcus pneumoniae [2] = assay: Antibacterial activity against Streptococcus pneumoniae 07P390 by microbroth dilution method
Streptococcus pneumoniae [3] = assay: Antibacterial activity against Streptococcus pneumoniae PU09 by microbroth dilution method
Streptococcus pyogenes = assay: Antibacterial activity against Streptococcus pyogenes 12-206 by microbroth dilution method
Staphylococcus aureus [4] = assay: Antibacterial activity against Staphylococcus aureus 15B196 by microbroth dilution method
Staphylococcus aureus [5] = assay: Antibacterial activity against Staphylococcus aureus PU32 by microbroth dilution method
Haemophilus influenzae = assay: Antibacterial activity against Haemophilus influenzae ATCC 49247 by microbroth dilution method

Row | Structure (SMILES) | MIC (Streptococcus pneumoniae [1]) | MIC (Streptococcus pneumoniae [2]) | MIC (Streptococcus pneumoniae [3]) | MIC (Streptococcus pyogenes) | MIC (Staphylococcus aureus [4]) | MIC (Staphylococcus aureus [5]) | MIC (Haemophilus influenzae)
1 | CC[C@H]1OC(=O)[C@H](C)C(=O)[C@H](C)[C@@H](O[C@@H]2O[C@H](C)C[C@H](N(C)C)[C@H]2O)[C@](C)(OC)C[C@@H](C)C(=O)[C@H](C)[C@H]2N(CCCCN3CCN(c4cc5c(cc4F)c(=O)c(C(=O)O)cn5C4CC4)CC3)C(=O)O[C@]12C | ≤ 0.008 µg/mL | 2 µg/mL (≈ 2 µM) | 0.5 µg/mL (≈ 0.501 µM) | 0.5 µg/mL (≈ 0.501 µM) | 256 µg/mL (≈ 256 µM) | 2 µg/mL (≈ 2 µM) | 8 µg/mL (≈ 8.01 µM)
2 | CC[C@H]1OC(=O)[C@H](C)C(=O)[C@H](C)[C@@H](O[C@@H]2O[C@H](C)C[C@H](N(C)C)[C@H]2O)[C@](C)(OC)C[C@@H](C)C(=O)[C@H](C)[C@H]2N(CCCCCC#Cc3ccc4c(=O)c(C(=O)O)cn(C5CC5)c4c3)C(=O)O[C@]12C | ≤ 0.008 µg/mL | 16 µg/mL (≈ 17.1 µM) | 1 µg/mL (≈ 1.07 µM) | 2 µg/mL (≈ 2.14 µM) | 128 µg/mL (≈ 137 µM) | 4 µg/mL (≈ 4.28 µM) | 16 µg/mL (≈ 17.1 µM)
3 | CC[C@H]1OC(=O)[C@H](C)C(=O)[C@H](C)[C@@H](O[C@@H]2O[C@H](C)C[C@H](N(C)C)[C@H]2O)[C@](C)(OC)C[C@@H](C)C(=O)[C@H](C)[C@H]2N(CCCN3CCN(c4cc5c(cc4F)c(=O)c(C(N)=O)cn5C4CC4)CC3)C(=O)O[C@]12C | 0.12 µg/mL (≈ 0.122 µM) | 256 µg/mL (≈ 260 µM) | 2 µg/mL (≈ 2.03 µM) | 8 µg/mL (≈ 8.14 µM) | 512 µg/mL (≈ 521 µM) | 2 µg/mL (≈ 2.03 µM) | 128 µg/mL (≈ 130 µM)
4 | CC[C@H]1OC(=O)[C@H](C)C(=O)[C@H](C)[C@@H](O[C@@H]2O[C@H](C)C[C@H](N(C)C)[C@H]2O)[C@](C)(OC)C[C@@H](C)C(=O)[C@H](C)[C@H]2N(CCCCCCC#Cc3ccc4c(c3)c(=O)c(C(=O)O)cn4C3CC3)C(=O)O[C@]12C | ≤ 0.008 µg/mL | 16 µg/mL (≈ 16.9 µM) | 1 µg/mL (≈ 1.05 µM) | 1 µg/mL (≈ 1.05 µM) | 128 µg/mL (≈ 135 µM) | 4 µg/mL (≈ 4.22 µM) | 4 µg/mL (≈ 4.22 µM)
5 | CC[C@H]1OC(=O)[C@H](C)C(=O)[C@H](C)[C@@H](O[C@@H]2O[C@H](C)C[C@H](N(C)C)[C@H]2O)[C@](C)(OC)C[C@@H](C)C(=O)[C@H](C)[C@H]2N(CCCCc3ccc4c(c3)c(=O)c(C(=O)O)cn4C3CC3)C(=O)O[C@]12C | 0.06 µg/mL (≈ 0.067 µM) | 64 µg/mL (≈ 71.4 µM) | 4 µg/mL (≈ 4.46 µM) | 2 µg/mL (≈ 2.23 µM) | 512 µg/mL (≈ 571 µM) | 1 µg/mL (≈ 1.12 µM) | 32 µg/mL (≈ 35.7 µM)
6 | CC[C@H]1OC(=O)[C@H](C)C(=O)[C@H](C)[C@@H](O[C@@H]2O[C@H](C)C[C@H](N(C)C)[C@H]2O)[C@](C)(OC)C[C@@H](C)C(=O)[C@H](C)[C@H]2N(CCCCC#Cc3ccc4c(c3)c(=O)c(C(=O)O)cn4C3CC3)C(=O)O[C@]12C | 0.016 µg/mL (≈ 0.0174 µM) | 128 µg/mL (≈ 139 µM) | 1 µg/mL (≈ 1.09 µM) | 4 µg/mL (≈ 4.35 µM) | 256 µg/mL (≈ 278 µM) | 2 µg/mL (≈ 2.17 µM) | 32 µg/mL (≈ 34.8 µM)
7 | CC[C@H]1OC(=O)[C@H](C)C(=O)[C@H](C)[C@@H](O[C@@H]2O[C@H](C)C[C@H](N(C)C)[C@H]2O)[C@](C)(OC)C[C@@H](C)C(=O)[C@H](C)[C@H]2N(CCCC#Cc3ccc4c(c3)c(=O)c(C(=O)O)cn4C3CC3)C(=O)O[C@]12C | 0.03 µg/mL (≈ 0.0331 µM) | 128 µg/mL (≈ 141 µM) | 1 µg/mL (≈ 1.1 µM) | 2 µg/mL (≈ 2.21 µM) | 256 µg/mL (≈ 283 µM) | 4 µg/mL (≈ 4.41 µM) | 8 µg/mL (≈ 8.83 µM)
8 | CC[C@H]1OC(=O)[C@H](C)C(=O)[C@H](C)[C@@H](O[C@@H]2O[C@H](C)C[C@H](N(C)C)[C@H]2O)[C@](C)(OC)C[C@@H](C)C(=O)[C@H](C)[C@H]2N(CC/C=C\c3ccc4c(c3)c(=O)c(C(=O)O)cn4C3CC3)C(=O)O[C@]12C | ≤ 0.008 µg/mL | 32 µg/mL (≈ 35.8 µM) | 1 µg/mL (≈ 1.12 µM) | 2 µg/mL (≈ 2.24 µM) | 256 µg/mL (≈ 286 µM) | 0.5 µg/mL (≈ 0.559 µM) | 8 µg/mL (≈ 8.95 µM)
9 | O=C(O)c1cn(C2CC2)c2cc(N3CCNCC3)c(F)cc2c1=O [CIPROFLOXACIN] | 1 µg/mL (≈ 3.02 µM) | 2 µg/mL (≈ 6.04 µM) | 2 µg/mL (≈ 6.04 µM) | 0.25 µg/mL (≈ 0.754 µM) | 1 µg/mL (≈ 3.02 µM) | 32 µg/mL (≈ 96.6 µM) | 0.03 µg/mL (≈ 0.0905 µM)
